Laboratory results reported in US12577273B2, “Small molecule modulators of gut bacterial bile acid metabolism” (priority 2019, dated 2026).
Entries after “also recorded” stand apart in the source; their conditions may differ. Where two headings read alike, the source gives them in different places. Each block holds one molecule with its values, some of them ahead of it.

How the values were obtained:
conventional mice = test: Food intake of conventional mice dosed with 3S-LCA-FMK; type: in vivo, mouse; conditions: compared to mice dosed with vehicle
C57BL/6 mice [1] = conditions: for detection in circulating plasma: in vivo
[2] = tested on: BSH activity in conventional mouse feces; test: Screen of inhibitors in conventional mouse feces; type: biochemical
Protocol: Screen of Inhibitors in Conventional Mouse Feces. […] The tubes were then frozen in dry ice for 5 mins and upon thawing were diluted with an equal volume of methanol. […] The supernatant was removed into a clean eppendorf tube and centrifuged again. […] The concentration of product detected from these assays was reported directly.

B. adolescentis BSH = test: Target validation and off-target profiling in B. adolescentis using 7-N3; type: cell-based, Bifidobacterium adolescentis L2-32
Protocol: Target Validation and Off-target Profiling in B. adolescentis using 7-N3. Pilot studies with 7-N3 were performed using B. adolescentis (Gram positive) and B. theta (Gram negative). We chose to use B. adolescentis due to the stronger total fluorescent signal detected by-in gel fluorescence. […] Cultures were allowed to grow anaerobically at 37° C. for 21 h. 10 μM 7-N3 (10 mM stock in DMSO) or […] DMSO (to control tubes) was then added to the cultures and incubated anaerobically at 37° C. for 1 h. The cultures were centrifuged at 2,500 g at 4° C. for 15 mins. The media was decanted and cells were resuspended in PBS containing 1 mM TCEP and 1 mM PMSF and centrifuged 4,200 rpm at 4° C. for 15 mins. The buffer was decanted and the cells were suspended in 300 μL of fresh buffer and transferred to homogenizing tubes (Precellys lysing kit tough micro-organism lysing VK05 tubes) with ceramic beads. The suspension was then homogenized (5000 speed for 90 s*2, 6500 speed for 60 s) and spun down for 20 min at 15,000 g at 4° C. The supernatant was removed and the concentration of proteins in the lysate was quantified by Bradford assay. The lysates were then subjected to click reaction as per “Click Chemistry for In-gel Fluorescence Imaging” for fluorescence imaging and “Click Chemistry for MS/MS on Bacterial Lysate” for mass spectrophotometer-based quantification and identification.
Cultures were allowed to grow anaerobically at 37° C. for 21 h. Decreasing concentrations of 7 were added to different tubes and the cultures were incubated anaerobically at 37° C. for 1 h. 10 μM 7-N3 was then added to the cultures and incubated anaerobically at 37° C. for an additional hour. The cultures were further processed as per the reported method in “Target Validation and Off-target Profiling in B. adolescentis using 7-N3” and “Click Chemistry for In-gel Fluorescence Imaging”.
Click Chemistry for In-gel Fluorescence Imaging. Click reactions were performed on 25 μL scale. Lysates (normalized to 1.5 mg/mL for both bacterial and mammalian cells) pretreated with 10 μM Compound 7-N3 were incubated with 100 μM fluor 488-alkyne (10 mM stock in DMSO), 100 μM CuBr (5 mM stock in DMSO), and 100 μM Tris[(1-benzyl-1H-1,2,3-triazol-4-yl)methyl]amine (5 mM stock in 4:1 t-BuOH:DMSO) for 1 h at 37° C. in the dark. 10 μL of 2×Laemmli buffer (containing 5% β-mercaptoethanol) was added to the reactions and the tubes were heated at 95° C. for 10 mins. 15 μL of the protein samples were then resolved by 10% SDS-PAGE. The ladder was diluted 100-fold and 10 μL was loaded. Gels were destained for 30 mins using 40% methanol, 50% acetic acid, 10% water and visualized using Bio-Rad ChemiDoc MP Imaging System. Gels were stained for 20 mins in Coomassie blue and destained for 2 h prior to imaging.
Click Chemistry for MS/MS on Bacterial Lysate. Click reactions were performed on 100 μL scale. Lysates (normalized to 1.3 mg/mL) pretreated with 10 μM 7-N3 were incubated with 100 μM desthiobiotin-PEG4-alkyne (10 mM stock in DMSO), 1 mM CuBr (50 mM stock in DMSO), and 1 mM Tris[(1-benzyl-1H-1,2,3-triazol-4-yl)methyl]amine (50 mM stock in 4:1 t-BuOH:DMSO) for 1 h at 37° C. The samples were then processed for further analysis as per “Proteomic Analysis of Click-Tagged Proteins”.
Proteomic Analysis of Click-Tagged Proteins.

NCI-H716 cells = test: Off-target profiling in mammalian cells using 7-N3; type: cell-based, human
Protocol: Off-Target profiling in Mammalian Cells using 7-N3. The human epithelial cell line NCI-H716 was used to study interactions with mammalian proteins. 10 μM 7-N3 (10 mM stock in DMSO) or 1 uL DMSO (for control) were added to ˜8×10^6 cells in 1 ml DPBS (HiMedia) and incubated for 1 h. Cells were collected in 15 ml Falcon tubes and washed 2 times in 15 ml DBPS by centrifugation at 500 g for 5 mins. A 3rd wash by centrifugation was performed in 1 mM solution of cOmplete™ Protease Inhibitor Cocktail (Roche, Switzerland) in DPBS. Cells were resuspended in 250 ul of DPBS with 1 mM cOmplete™ Protease Inhibitor Cocktail and sonicated at 50% amplitude for 2 secs followed by 30 secs on ice for 3 cycles. The lysate was centrifuged at 15,000 g for 15 mins at 4° C. The supernatant was removed and protein concentration was measured by Bradford assay. The lysates were then subjected to click reaction as per “Click Chemistry for In-gel Fluorescence Imaging” for in-gel fluorescence and “Click Chemistry for MS/MS on Mammalian Lysate” for mass spectrophotometer-based quantification and identification.
Click Chemistry for In-gel Fluorescence Imaging. Click reactions were performed on 25 μL scale. […]
Proteomic Analysis of Click-Tagged Proteins. […] Indicated bands were excised, subjected to in-gel digestion, and extracted peptides analyzed by nanoflow LC-MS/MS as described.^53

C57BL/6 mice [3] = conditions: mouse, in vivo
Protocol: Animal Studies. C57BL/6 mice obtained from Jackson laboratories were maintained under a strict 12 h/12 h light/dark cycle and a constant temperature (21±1° C.) and humidity (55-65%). All experiments were conducted on 8-9 week old male mice.
Mice were fed powdered standard chow diet (LabDiet, catalog no. 5053) for the duration of the experiment. Mice were split into two groups of ten mice each and were maintained on powdered chow (control group) or fed powdered chow containing 0.09% (w/w) GR-7 (experimental group). Feces from these mice were collected as described above at 8 h. Mice were euthanized after 30 hours of access to the powdered chow with or without GR-7 using carbon dioxide. Blood samples were collected by cardiac puncture and placed in EDTA-coated tubes on ice. The liver and cecal contents were then collected from each mouse, snap frozen in liquid nitrogen, and stored at −80° C. until further analysis. […]
BSH Activity in Feces. BSH activity in fecal pellets were quantified using a modified version of a published method.^45 Fecal pellets (approximately 10-20 mg) were suspended in buffer (10% PBS, 90% sodium acetate at pH 5.2) containing 100 μM (GCDCA-d4) to obtain a concentration of 20 mg/mL. […] The concentration of product detected from these assays were reported directly.
Quantification of Bile Acids in Tissues and Plasma. […]
Quantification of bacterial 16S rDNA copy number. […]

[4] = tested on: differentiated Caco-2 cells; test: Epithelial permeability assay (4 kDa FITC-dextran)

Structure (SMILES): C[C@H](CCC(=O)CF)[C@H]1CC[C@H]2[C@@H]3CC[C@@H]4C[C@H](OS(=O)(=O)O)CC[C@]4(C)[C@H]3CC[C@]12C [Compound 3S-LCA-FMK, 3-sulfated-lithocholic acid-fluoromethyl ketone]
food intake (conventional mice): significant decrease in food consumption; also recorded: reduces food intake
BSH activity in feces (C57BL/6 mice [1]; 0.03% weight/weight in chow ad libitum for 7 days): significantly reduced
detection in circulating plasma (C57BL/6 mice [1]; male, C57Bl/6, mouse): No 3S-LCA-FMK was detectable
detection in circulating plasma (C57BL/6 mice [1]; mouse): not detectable

Structure (SMILES): C[C@H](CCC(=O)CF)[C@H]1CC[C@H]2[C@@H]3[C@H](O)C[C@@H]4C[C@H](N=[N+]=[N-])CC[C@]4(C)[C@H]3CC[C@]12C [Compound 7-N3]
BSH inhibition in conventional mouse feces (in words) ([2]; 7-N3, concentration not given): significant BSH inhibition; also recorded: potently inhibited BSH activity in mouse feces
in-gel fluorescence labeling in B. adolescentis L2-32 (B. adolescentis BSH; 10 μM, 1 hour, click with Fluor 488-alkyne): labeling of only one protein; also recorded: Only one fluorescent band was visible
enrichment of BSH in gel bands, probe- versus vehicle-treated cultures (B. adolescentis BSH; desthiobiotin-alkyne, streptavidin pulldown, in-gel digestion, LC-MS/MS, semi-quantitative): 4.5 fold
enrichment of other bacterial proteins (B. adolescentis BSH; label-free LC-MS/MS, biological triplicate): ≤ 2 fold
enrichment of BSH in probe-treated cultures (B. adolescentis BSH; on-bead digestion, label-free LC-MS/MS): 3.6 fold
in-gel fluorescence labeling in NCI-H716 cells (NCI-H716 cells; 10 μM, 1 h, click with Fluor 488-alkyne): no significant labeling of proteins; also recorded: no enrichment of any band
enrichment of proteins in probe-treated NCI-H716 lysates (NCI-H716 cells; label-free LC-MS/MS): ≤ 2 fold

detection in feces (C57BL/6 mice [3]): detected
microbial biomass (16S rDNA copies/g in cecal contents) (C57BL/6 mice [3]): did not affect microbial biomass
Structure (SMILES): C[C@H](CCC(=O)CF)[C@H]1CC[C@H]2[C@@H]3[C@H](O)C[C@@H]4C[C@H](OS(=O)(=O)[O-])CC[C@]4(C)[C@H]3CC[C@]12C.[Na+] [GR-7]
BSH inhibition in mouse fecal slurry (in words) ([2]; 20 μM or 60 μM of GR-7, 30 mins, GCDCA-d4 100 μM, 18 hours): remains a potent pan-BSH inhibitor; also recorded: inhibited BSH activity in a fecal slurry
epithelial barrier integrity of Caco-2 cells ([4]; 60 μM): did not affect epithelial barrier integrity
epithelial monolayer integrity (passive diffusion of 4 kDa FITC-dextran) ([4]; differentiated Caco-2, apical chamber, 6 or 12 h): did not compromise epithelial monolayer integrity
